# In ChEMBL document CHEMBL1155520, “Novel 8a-aza-8a-homoerythromycin--4''-(3-substituted-amino)propionates with broad spectrum antibacterial activity” (2010):
# Legend:
# Assay type in all cases: functional
# [1] = test system: Streptococcus pneumoniae; test: Antimicrobial activity against macrolide-sensitive Streptococcus pneumoniae SPO 30
# [2] = test system: Streptococcus pyogenes; test: Antimicrobial activity against macrolide-sensitive Streptococcus pyogenes 3665
# [3] = test system: Streptococcus pyogenes; test: Antimicrobial activity against inducible macrolide, lincosamide, streptogramin-resistant Streptococcus pyogenes Finland 11
# [4] = test system: Staphylococcus aureus; test: Antimicrobial activity against macrolide-sensitive Staphylococcus aureus ATCC 13709
# [5] = test system: Streptococcus pneumoniae; test: Antimicrobial activity against macrolide-resistant Streptococcus pneumoniae Ci137
# [6] = test system: Streptococcus pneumoniae; test: Antimicrobial activity against inducible macrolide and constitutive lincosamide, streptogramin-resistant Streptococcus pneumoniae 4636
# [7] = test system: Haemophilus influenzae; test: Antimicrobial activity against Haemophilus influenzae ATCC 49247
# [8] = test system: Streptococcus pneumoniae; test: Antimicrobial activity against inducible macrolide and constitutive lincosamide, streptogramin-resistant Streptococcus pneumoniae 58 Spain
# [9] = test system: Streptococcus pneumoniae; test: Antimicrobial activity against inducible macrolide, lincosamide, streptogramin-resistant Streptococcus pneumoniae 134 GRM
# [10] = test system: Staphylococcus aureus; test: Antimicrobial activity against macrolide-sensitive Staphylococcus aureus PK1
# [11] = test system: Streptococcus pyogenes; test: Antimicrobial activity against inducible macrolide-resistant Streptococcus pyogenes Finland 3
# [12] = test system: Streptococcus pyogenes; test: Antimicrobial activity against inducible macrolide and constitutive lincosamide, streptogramin-resistant Streptococcus pyogenes 166 GR-micro
Compound,MIC [1],MIC [2],MIC [3],MIC [4],MIC [5],MIC [6],MIC [7],MIC [8],MIC [9],MIC [10],MIC [11],MIC [12]
CC[C@H]1OC(=O)[C@H](C)[C@@H](O[C@H]2C[C@@](C)(OC)[C@@H](OC(=O)CCN3CCN(c4ccc([N+](=O)[O-])cc4)CC3)[C@H](C)O2)[C@H](C)[C@@H](O[C@@H]2O[C@H](C)C[C@H](N(C)C)[C@H]2O)[C@](C)(OC)C[C@@H](C)NC(=O)[C@H](C)[C@@H](O)[C@]1(C)O,< 0.13 µg/mL,< 0.13 µg/mL,8 µg/mL,2 µg/mL,1 µg/mL,8 µg/mL,2 µg/mL,–,–,–,–,–
CC[C@H]1OC(=O)[C@H](C)[C@@H](O[C@H]2C[C@@](C)(OC)[C@@H](OC(=O)CCNCCNc3cncc([N+](=O)[O-])c3)[C@H](C)O2)[C@H](C)[C@@H](O[C@@H]2O[C@H](C)C[C@H](N(C)C)[C@H]2O)[C@](C)(OC)C[C@@H](C)NC(=O)[C@H](C)[C@@H](O)[C@]1(C)O,< 0.13 µg/mL,< 0.13 µg/mL,0.25 µg/mL,0.25 µg/mL,0.5 µg/mL,4 µg/mL,4 µg/mL,–,–,–,–,–
CC[C@H]1OC(=O)[C@H](C)[C@@H](O[C@H]2C[C@@](C)(OC)[C@@H](OC(=O)CCNCC(=O)Nc3ccc([N+](=O)[O-])cc3)[C@H](C)O2)[C@H](C)[C@@H](O[C@@H]2O[C@H](C)C[C@H](N(C)C)[C@H]2O)[C@](C)(O)C[C@@H](C)NC(=O)[C@H](C)[C@@H](O)[C@]1(C)O,< 0.13 µg/mL,< 0.13 µg/mL,4 µg/mL,2 µg/mL,4 µg/mL,32 µg/mL,8 µg/mL,–,–,–,–,–
CC[C@H]1OC(=O)[C@H](C)[C@@H](O[C@H]2C[C@@](C)(OC)[C@@H](O)[C@H](C)O2)[C@H](C)[C@@H](O[C@@H]2O[C@H](C)C[C@H](N(C)C)[C@H]2O)[C@](C)(O)C[C@@H](C)CN(C)[C@H](C)[C@@H](O)[C@]1(C)O [AZITHROMYCIN],< 0.13 µg/mL,< 0.13 µg/mL,16 µg/mL,0.5 µg/mL,8 µg/mL,> 64 µg/mL,1 µg/mL,> 64 µg/mL,> 64 µg/mL,> 64 µg/mL,8 µg/mL,> 64 µg/mL
CC[C@H]1OC(=O)[C@H](C)[C@@H](O[C@H]2C[C@@](C)(OC)[C@@H](OC(=O)CCN3CCN(c4cc5c(cc4F)c(=O)ccn5C4CC4)CC3)[C@H](C)O2)[C@H](C)[C@@H](O[C@@H]2O[C@H](C)C[C@H](N(C)C)[C@H]2O)[C@](C)(O)C[C@@H](C)NC(=O)[C@H](C)[C@@H](O)[C@]1(C)O,–,–,0.5 µg/mL,1 µg/mL,< 0.13 µg/mL,–,8 µg/mL,> 32 µg/mL,> 32 µg/mL,–,–,–
CC[C@H]1OC(=O)[C@H](C)[C@@H](O[C@H]2C[C@@](C)(OC)[C@@H](OC(=O)CCN3CCN(c4cc5c(cc4F)c(=O)c(C(=O)O)cn5C4CC4)CC3)[C@H](C)O2)[C@H](C)[C@@H](O[C@@H]2O[C@H](C)C[C@H](N(C)C)[C@H]2O)[C@](C)(OC)C[C@@H](C)NC(=O)[C@H](C)[C@@H](O)[C@]1(C)O,–,–,0.5 µg/mL,1 µg/mL,< 0.13 µg/mL,–,1 µg/mL,16 µg/mL,8 µg/mL,2 µg/mL,0.5 µg/mL,8 µg/mL
CC[C@H]1OC(=O)[C@H](C)[C@@H](O[C@H]2C[C@@](C)(OC)[C@@H](OC(=O)CCNCC(=O)Nc3ccc4ccccc4c3)[C@H](C)O2)[C@H](C)[C@@H](O[C@@H]2O[C@H](C)C[C@H](N(C)C)[C@H]2O)[C@](C)(OC)C[C@@H](C)NC(=O)[C@H](C)[C@@H](O)[C@]1(C)O,< 0.13 µg/mL,< 0.13 µg/mL,16 µg/mL,1 µg/mL,2 µg/mL,16 µg/mL,2 µg/mL,–,–,–,–,–
CC[C@H]1OC(=O)[C@H](C)[C@@H](O[C@H]2C[C@@](C)(OC)[C@@H](OC(=O)CCN[C@H](C)c3ccc([N+](=O)[O-])cc3)[C@H](C)O2)[C@H](C)[C@@H](O[C@@H]2O[C@H](C)C[C@H](N(C)C)[C@H]2O)[C@](C)(O)C[C@@H](C)NC(=O)[C@H](C)[C@@H](O)[C@]1(C)O,< 0.13 µg/mL,< 0.13 µg/mL,8 µg/mL,4 µg/mL,4 µg/mL,32 µg/mL,4 µg/mL,–,–,–,–,–
